Key:
α2 -adrenergic receptors [1] = target: T1, α2 -adrenergic receptors (Rattus norvegicus, UniProt P22909); assay: binding to α2-adrenergic receptors on rat brain homogenates (3H-p. aminoclonidine); details: 10^-7 M; for inhibition at 0.1 µM: rat brain homogenates, 0.7 nM 3H-p. aminoclonidine, read-out: % Inhibition of the Specific Binding at 10^-7 M for α2 Recep.; for affinity for α2 receptors (in words): in vitro binding assay
T1 construct: from tissue; host or cells: rat brain homogenates
T1 sequence (P22909 1-465): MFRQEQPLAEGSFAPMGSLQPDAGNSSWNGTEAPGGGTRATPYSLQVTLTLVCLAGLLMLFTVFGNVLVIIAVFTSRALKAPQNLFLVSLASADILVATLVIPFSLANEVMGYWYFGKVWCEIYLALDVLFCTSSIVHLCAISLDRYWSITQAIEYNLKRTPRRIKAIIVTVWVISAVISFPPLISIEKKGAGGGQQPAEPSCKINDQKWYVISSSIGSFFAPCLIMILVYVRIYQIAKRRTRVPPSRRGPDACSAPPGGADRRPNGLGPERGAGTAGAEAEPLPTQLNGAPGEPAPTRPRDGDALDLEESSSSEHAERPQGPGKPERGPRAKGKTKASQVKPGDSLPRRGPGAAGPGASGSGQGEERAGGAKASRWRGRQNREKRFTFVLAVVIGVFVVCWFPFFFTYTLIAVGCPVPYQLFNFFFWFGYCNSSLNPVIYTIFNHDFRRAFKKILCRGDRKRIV
Procedure: (§1) The activity of the compounds according to the invention with respect to binding of the α-adrenergic receptors was determined in vitro according to a method deriving from the works of B. R. Rouot et al., Life Sci., 25, 769 (1979) and of D. U'Prichard et al., Mol. Pharmacol., 13, 454 (1977). This method consists in measuring the binding to the receptor on rat brain homogenates, by marking by means of a specific tritriated ligand placed in competition with the product to be tested.
(§2) In the presenct case the binding to the α1 -adrenergic receptors was measured by means of 1.6 nM of ^3 H-WB 4101 and the binding to the α2 -adrenergic receptors by means of 0.7 nM of ^3 H-p. aminoclonidine, the non-specific binding being determined by 1,000 nM of phentolamine. The results are given in Table II, column 3, and are expressed in terms of percentage of inhibition of the specific binding of 10^-7 molar compound concentration.
(§3) (2) The specific binding is the total binding less the nonspecific
(§4) binding. The total binding is the binding in the absence of nonradioactiv
(§5) drug. The nonspecific binding is the binding in the presence of 1,000 nM
(§6) of phentolamine. The products of the invention are tested at a
(§7) concentration of 10^-7 molar.

[2] = test system: 3-mercaptopropionic acid (3-MPA)-induced tonic extension in mice; assay: protection against 3-mercaptopropionic acid (3-MPA)-induced tonic extension in mice; type: in vivo; details: 100 mg/kg orally, 30 minutes prior to 3-MPA (120 mg/kg s.c.)
Procedure: (§8) In the second study the anti-convulsant effect of the compounds of the present invention was examined in two seizure models; bicuculline-induced tonic extension in mice and 3-mercaptopropionic acid (3-MPA)-induced tonic extension in mice.
(§9) In the bicuculline study, the ability of the compounds of the present invention to protect against tonic extension (involving rigidity) was evaluated as follows. Each test compound was administered to a group of ten mice at a dose of 10 mg/kg, 3 hours prior to the i.v. administration of bicuculline (0.7 mg/kg). Anticonvulsant activity in this test is expressed as percentage of animals tested. The results are given in Table II, column 6, and indicate that several compounds display significant anticonvulsive activity in this test. The anticonvulsant effect of the compounds has also been tested with respect to the tonic extension induced by 3-mercaptopropionic acid (120 mg/kg subcutaneously) in mice.
In the 3-MPA assay, the compounds of the present invention are administered orally at a dose of 100 mg/kg 30 minutes prior to administration of 3-MPA. Each compound was tested on a group of 5 mice; if more than 1 mouse was protected, a second group of 5 mice was tested.

[3] = test system: bicuculline-induced tonic extension in mice; assay: protection against bicuculline-induced tonic extension in mice; type: in vivo; details: Mus musculus, iv, 3 hours prior to bicuculline 0.7 mg/kg i.v., read-out: Anticonvulsive effect (versus Bicuculline) (% Protection)
Procedure: as §8, §9

[4] = test system: α2 adrenergic receptors of the central nervous system; assay: inhibition of the antihypertensive action of clonidine in spontaneously hypertensive rats (SHR); type: in vivo, rat; details: 1 mg/kg p.o., clonidine 50 μg/kg s.c.
Procedure: In the first study, carried out upon unanaesthetized spontaneously hypertensive rats (SHR rats), the ability of the compounds of the present invention to inhibit the antihypertensive action of clonidine was determined.
The antihypertensive activity of clonidine results from an interaction with α2 adrenergic receptors of the central nervous system, i.e., central antihypertensive actions.
In this test, two groups of SHR rats are utilized as follows. In the first group, prior to subcutaneous administration of clonidine (50 μg/kg), the SHR rats are treated with the compound to be tested (1 mg/kg p.o.) dissolved in a saline vehicle. The second group (control group) of SHR rats are treated with the saline vehicle only, prior to subcutaneous administration of clonidine.
The arterial pressure is measured in the region of the median coccygeal artery according to the method of J. Roba, A. F. DeSchaepdrijver, Exp. Anim., 4, 147-162 (1971).
The results of this assay summarized in Table II, column 5, are expressed as a percentage of inhibition of the effect of clonidine.

α1 -adrenergic receptors = assay: binding to α1-adrenergic receptors on rat brain homogenates (3H-WB 4101); details: 1.6 nM 3H-WB 4101
Procedure: as §1, §2, §3, §4, §5, §6, §7

α2 -adrenergic receptors [5] = target: T2, α2 -adrenergic receptors (Cavia porcellus, UniProt Q60474); assay: α2 antagonist and α2 agonist activity in isolated guinea pig ileum (clonidine)
T2 construct: from tissue; host or cells: isolated guinea pig ileum
T2 sequence (Q60474 1-464): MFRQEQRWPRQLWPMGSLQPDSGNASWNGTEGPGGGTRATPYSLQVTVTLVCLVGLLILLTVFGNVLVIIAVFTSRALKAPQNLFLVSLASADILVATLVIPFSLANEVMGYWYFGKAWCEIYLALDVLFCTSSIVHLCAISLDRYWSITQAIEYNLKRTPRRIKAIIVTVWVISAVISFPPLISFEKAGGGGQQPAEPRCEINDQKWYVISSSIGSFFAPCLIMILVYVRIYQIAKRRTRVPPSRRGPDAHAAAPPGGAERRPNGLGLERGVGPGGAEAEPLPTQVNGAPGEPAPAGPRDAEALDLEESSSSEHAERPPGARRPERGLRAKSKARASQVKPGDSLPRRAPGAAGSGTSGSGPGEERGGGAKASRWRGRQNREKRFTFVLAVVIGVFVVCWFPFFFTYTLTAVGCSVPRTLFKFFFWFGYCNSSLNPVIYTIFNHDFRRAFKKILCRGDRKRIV
Procedure: The α2 antagonist and α2 agonist activity of the compounds according to the invention was determined upon isolated organs according to a model described by G. M. Drews, Br. J. Pharmaco., 64, 293-300 (1978).
This model is based upon the principle that the stimulation of the cholinergic nervous transmissions of the guinea pig ileum causes the liberation of acetyl choline, which in turn causes contractions of the ileum.
The stimulation of the α2 -adrenergic receptors inhibits the activity of the cholinergic nerve and consequently reduces all response resulting from a timulation of the latter. Thus the contractions of the ileum induced by electric stimulation of the tissue are inhibited by clonidine, an α2 agonist, in proportion to the dose. This inhibition is specifically displaced by the α2 antagonists and not by the α1 antagonists.
The method utilized can be summarized as follows: three dose-response curves to clonidine are established at an interval of 60 minutes. Two concentrations of the product to be tested are added successively 10 minutes before the realization of the second and third clonidine curves. Next, after washing, a dose-response curve is established with the product to be tested.
The dose-response curves are calculated as a percentage of the maximum inhibition obtained for the first curve. In this system the products having an α2 antagonist activity displace the dose-response curve to clonidine. The α2 antagonist activity, expressed in pA2 value, shown in column 4, is calculated according to J. M. Van Rossum, Arch. Int. Pharmacodyn., 143, 299-300 (1963).
A reduction of the contractions induced by the tested product alone indicates an α2 agonist effect. This activity is expressed in--log ED50 (the--logarithm of the concentration of the product giving 50% of the maximum inhibition obtained with clonidine).
The higher the pA2 value, the higher the α2 antagonist activity; the higher the--log ED50 value (i.e., the pA2 agonist activity), the higher the α2 agonist activity.

[6] = test system: peripheral vascular α2 receptors; assay: inhibition of the pressor effect of BHT 920 in pithed rats; type: in vivo, rat; details: 1 mg/kg i.v., BHT 920 30 μg/kg i.v.
Procedure: The α2 antagonist activity of the compounds is evaluated by the inhibition of the pressor effect (blood pressure elevation), of a specific α2 agonist agent, 4H-Thiazolo[4,5-b]azetin-2-amine, 5,6,7,8-tetrahydro-6-(2-propenyl)-, dihydrochloride, designated as BHT 920 at a concentration of 30 μg/kg i.v.) according to a method described by J. C. Van Meel et al., J. Pharmacol. Exp. Ther., 219, 760-767 (1981).
The compound to be tested is administered at 1 mg/kg i.v. The ability of the compounds tested to antagonize the pressor effects of BHT 920 is determined and expressed as percentage of inhibition. Any direct hypertensive (=α2 agonist) activity of the compounds under test can likewise be detected.

[7] = acute toxicity after oral administration to mice (LD50); details: mouse, in vivo, 15 days mortality
Procedure: The acute toxicity of the compounds of the present invention was studied after oral administration to mice. The products to be tested, suspended in a 1% tragacanth gum mucilage, were administered by means of an intragastric probe to groups of three male mice which had fasted since the preceding day. The doses tested are a function of the effect observed and can vary from 3,000 to 3 mg/kg or less. The mortality was recorded for 15 days. The lethal dose for 50% of the animals (LD50) was calculated according to the method of J. Litchfield and F. Wilcoxon, J. Pharmacol. Exp. Ther., 96, 99 (1949) and expressed in mg/kg. The effect of the products on the behaviour of the animals is observed until 5 to 6 hours after the treatment indicated above and after 24 hours, using a method derived from that of S. Irwin, described by R. A. Turner, Screening Methods in Pharmacology, Chapter 3, pages 22-34, Academic Press, 1965. If anomalies are noted, the observation is prolonged and smaller doses are tested.

CC(O)(c1c[nH]cn1)C(c1ccccc1)c1ccccc1 (centres unmarked) [Compound 3]
inhibition at 0.1 µM (α2 -adrenergic receptors [1]): 10%
anticonvulsant effect versus 3-MPA (in words) [2]: potent anticonvulsant effect
responders at 10 mg/kg [3]: 10%
α2 Antagonist (% Inhibition of the Antihypertension of Clonidine) [4]: 67%
% Inhibition of the Specific Binding at 10^-7 M for α1 Recep. (α1 -adrenergic receptors): 0%

Cc1[nH]cnc1CC(c1ccccc1)c1ccccc1 [Compound 7, 4(5)-(2,2-diphenylethyl)-5(4)-methyl imidazole]
inhibition at 0.1 µM (α2 -adrenergic receptors [1]): 23%
EC50 (α2 -adrenergic receptors [5]; 50% of maximum inhibition obtained with clonidine, read-out: α2 Agonist Activity (-log ED50) (converted)): 2 µM
Kb (α2 -adrenergic receptors [5]; versus clonidine, read-out: α2 Antagonist Activity (pA2) (converted)): 0.0501 µM
responders at 10 mg/kg [3]: 20%
α2 Antagonist (% Inhibition of the Antihypertension of Clonidine) [4]: 82%
α2 antagonist activity, inhibition of pressor effect of BHT 920 (in words) [6]: very active as α2 antagonist agents
% Inhibition of the Specific Binding at 10^-7 M for α1 Recep. (α1 -adrenergic receptors): 12%

CC(Cc1c[nH]cn1)(c1ccccc1)c1ccccc1 [Compound 10, 4(5)-[1-(2,2-diphenyl)-propyl]imidazole]
inhibition at 0.1 µM (α2 -adrenergic receptors [1]): 6%
anticonvulsant effect versus 3-MPA (in words) [2]: potent anticonvulsant effect
responders at 10 mg/kg [3]: 27%
α2 Antagonist (% Inhibition of the Antihypertension of Clonidine) [4]: 46%
% Inhibition of the Specific Binding at 10^-7 M for α1 Recep. (α1 -adrenergic receptors): 0%

Cc1ccc(C(Cc2c[nH]cn2)c2ccccc2)cc1C (centres unmarked) [Compound 22]
inhibition at 0.1 µM (α2 -adrenergic receptors [1]): 22%
responders at 10 mg/kg [3]: 20%
LD50 at 360 h [7]: 155 mg/kg
α2 Antagonist (% Inhibition of the Antihypertension of Clonidine) [4]: 57%
α2 antagonist activity, inhibition of pressor effect of BHT 920 (in words) [6]: very active as α2 antagonist agents
% Inhibition of the Specific Binding at 10^-7 M for α1 Recep. (α1 -adrenergic receptors): 4%

COc1ccc(C(Cc2c[nH]cn2)c2ccc(OC)cc2)cc1 [Compound 23]
inhibition at 0.1 µM (α2 -adrenergic receptors [1]): 20%
responders at 10 mg/kg [3]: 10%
α2 Antagonist (% Inhibition of the Antihypertension of Clonidine) [4]: 40%
α2 antagonist activity, inhibition of pressor effect of BHT 920 (in words) [6]: very active as α2 antagonist agents
% Inhibition of the Specific Binding at 10^-7 M for α1 Recep. (α1 -adrenergic receptors): 0%

Cc1ccc(C(Cc2c[nH]cn2)c2ccccc2)c(C)c1 (centres unmarked) [Compound 24]
inhibition at 0.1 µM (α2 -adrenergic receptors [1]): 34%
anticonvulsant effect versus 3-MPA (in words) [2]: potent anticonvulsant effect
responders at 10 mg/kg [3]: 0%
α2 Antagonist (% Inhibition of the Antihypertension of Clonidine) [4]: 93%
% Inhibition of the Specific Binding at 10^-7 M for α1 Recep. (α1 -adrenergic receptors): 0%

Fc1cccc(F)c1C(Cc1c[nH]cn1)c1ccccc1 (centres unmarked) [Compound 27, 4(5)-{[2-(2-fluorophenyl)-2-(6'-fluorophenyl)]ethyl}imidazole]
inhibition at 0.1 µM (α2 -adrenergic receptors [1]): 86%
affinity for α2 receptors (in words) (α2 -adrenergic receptors [1]): high affinity
anticonvulsant effect versus 3-MPA (in words) [2]: potent anticonvulsant effect
LD50 at 360 h [7]: 173 mg/kg
% Inhibition of the Specific Binding at 10^-7 M for α1 Recep. (α1 -adrenergic receptors): 14%

Fc1ccccc1C(Cc1c[nH]cn1)c1ccccc1 (centres unmarked) [Compound 28, 4(5)-{[2-(2-fluorophenyl)-2-phenyl]ethyl}imidazole]
inhibition at 0.1 µM (α2 -adrenergic receptors [1]): 95%
affinity for α2 receptors (in words) (α2 -adrenergic receptors [1]): high affinity
anticonvulsant effect versus 3-MPA (in words) [2]: potent anticonvulsant effect
LD50 at 360 h [7]: 94 mg/kg
% Inhibition of the Specific Binding at 10^-7 M for α1 Recep. (α1 -adrenergic receptors): 8%

c1ccc(-c2ccc(C(Cc3c[nH]cn3)c3ccccc3)cc2)cc1 (centres unmarked) [Compound 29, 4(5)-{[2-(4-biphenyl)-2-phenyl]ethyl}imidazole]
inhibition at 0.1 µM (α2 -adrenergic receptors [1]): 23%
anticonvulsant effect versus 3-MPA (in words) [2]: potent anticonvulsant effect
LD50 at 360 h [7]: > 300 mg/kg
% Inhibition of the Specific Binding at 10^-7 M for α1 Recep. (α1 -adrenergic receptors): 15%
